# Columns and labels:
# [1] = target: T1, HCN4 (Homo sapiens, UniProt Q9Y3Q4); assay: IonWorks electrophysiological assay; type: cell-based; conditions: 1 μM
# T1 construct: expressed in transfected cells
# T1 sequence (Q9Y3Q4 1-1203): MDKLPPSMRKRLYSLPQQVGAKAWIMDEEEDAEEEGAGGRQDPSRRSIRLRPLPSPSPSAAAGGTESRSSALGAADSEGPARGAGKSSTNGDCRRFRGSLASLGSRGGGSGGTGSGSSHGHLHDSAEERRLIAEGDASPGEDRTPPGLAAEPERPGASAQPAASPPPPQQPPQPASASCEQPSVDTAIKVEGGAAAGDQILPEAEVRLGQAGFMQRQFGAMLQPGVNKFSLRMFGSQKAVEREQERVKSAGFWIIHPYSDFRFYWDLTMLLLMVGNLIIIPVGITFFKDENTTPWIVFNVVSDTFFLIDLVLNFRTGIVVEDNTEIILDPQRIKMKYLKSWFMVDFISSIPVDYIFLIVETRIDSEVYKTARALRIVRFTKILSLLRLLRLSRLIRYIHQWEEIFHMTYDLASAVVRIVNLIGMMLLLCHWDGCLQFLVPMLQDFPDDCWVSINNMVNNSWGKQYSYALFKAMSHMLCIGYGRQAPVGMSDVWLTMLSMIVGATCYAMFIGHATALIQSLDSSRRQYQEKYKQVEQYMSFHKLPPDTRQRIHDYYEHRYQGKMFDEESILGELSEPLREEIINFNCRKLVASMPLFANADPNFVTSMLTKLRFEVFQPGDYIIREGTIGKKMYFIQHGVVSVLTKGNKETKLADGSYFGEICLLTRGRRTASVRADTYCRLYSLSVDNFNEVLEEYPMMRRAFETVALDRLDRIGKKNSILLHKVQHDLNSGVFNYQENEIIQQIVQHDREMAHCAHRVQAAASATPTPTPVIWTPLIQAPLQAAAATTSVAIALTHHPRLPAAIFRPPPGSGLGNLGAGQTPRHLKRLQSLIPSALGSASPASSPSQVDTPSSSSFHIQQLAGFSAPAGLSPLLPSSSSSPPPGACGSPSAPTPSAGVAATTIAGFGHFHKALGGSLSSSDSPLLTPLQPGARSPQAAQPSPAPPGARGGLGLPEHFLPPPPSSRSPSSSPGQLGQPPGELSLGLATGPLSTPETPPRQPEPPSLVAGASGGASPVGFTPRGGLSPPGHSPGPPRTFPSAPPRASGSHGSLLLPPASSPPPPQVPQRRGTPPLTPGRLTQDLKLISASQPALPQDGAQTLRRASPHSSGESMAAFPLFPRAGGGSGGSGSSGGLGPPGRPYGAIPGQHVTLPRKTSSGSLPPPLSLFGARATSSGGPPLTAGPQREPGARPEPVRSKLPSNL
# Procedure: The stock solution was transferred to a master plate and into assay plates where 2 μl per well of the solution were placed. On the day of the assay, 198 μl of external solution containing the appropriate DMSO concentration was added and mixed thoroughly. This provided a 1:100 dilution. A further 1:3 dilution occurred upon addition to the cells in the IonWorks, giving a 1:300 dilution in total. On each assay plate, at least 8 wells were reserved for vehicle control (0.3% DMSO) and at least 8 wells for each positive control specific to the cell line tested. The positive controls were tested at a maximal blocking and an approximate IC50 concentration. The compounds used for positive controls: Nav1.5 100 μM and 5 mM Lidocaine, Kv4.3/KChIP2 20 μM and 500 μM Quinidine, Cav1.2 1 μM and 100 μM Nitrendipine, Kv1.5 300 μM and 10 mM 4-AP, KCNQ1/minK 10 μM and 100 μM Chromanol 293B, hERG 0.1 μM and 1 μM Cisapride, HCN4 50 μM and 3 mM Cesium, Kir2.1 20 μM and 500 μM Barium.
# [2] = tested on: CD1^pcy/pcy mice; assay: Cyst formation in pcy mice (kidney weight, cyst number); type: in vivo, mouse; conditions: 0.1 μmol/kg/day i.p., 99 days
# Procedure: The toxin was dissolved in 0.9% NaCl at a concentration of 1 mg/ml. 10 week-old CD1^pcy/pcy mice were injected intraperitoneally with the toxin at a dose of 0.1 μmol toxin/kg of body weightday for 99 days. Then the mice were perfusion-fixed with 4% paraformaldehyde/1× phosphate-buffered saline, the kidneys and hearts were taken out and weighed. Then, the ratio of kidney weight or heart weightbody weight and kidney weightheart weight was calculated to evaluate an effect of the toxin on cyst formation. The kidneys were embedded in paraffin. Transverse kidney sections were stained with hematoxylin and eosin. Cyst number was determined using the program ImageJ and related to the size of the section thus arriving at the relative cyst number.
# [3] = tested on: CD1^pcy/pcy mice; assay: Diuretic and urine osmolarity effect, single and increasing doses; type: in vivo, mouse
# Procedure: The toxin was dissolved in 0.9% NaCl at a concentration of 1 mg/ml. Adult CD1^pcy/pcy (Takahashi et al., J. Urol., 1986, 135, 1280-1283, and J. Am. Soc. Nephrol., 1991, 1, 980-989 and Olbrich et al., Nature Genetics, 2003, 34, 455-459) and adult C57BL/6 mice were injected intraperitoneally and subcutaneously with the toxin at doses of 1, 0.1 and 0.01 μmol toxin/kg of body weight. One, three and five days after the first injection the mice were kept for 24 hours in metabolic cages. The collected urine was centrifuged for 30 minutes at 14,000 rpm. Urine osmolality (mOs/kg) was determined with a Knauer osmometer, urine volume (μl) was measured with a pipette.
# [4] = tested on: CD1^pcy/pcy mice; assay: Long-term administration experiment (99 days); type: in vivo, mouse; conditions: 0.1 μmol/kg/day i.p.
# Procedure: The toxin was dissolved in 0.9% NaCl at a concentration of 1 mg/ml and administered intraperitoneally to adult CD1^pcy/pcy mice at a dose of 0.1 μmol/kg/day. At 0, 30 70 and 99 days, urine was collected for 24 hours in metabolic cages and urine volume and urine osmolarity were determined.
# [5] = target: vasopressin V2 receptor subtype (V2R) (Homo sapiens, UniProt P30518); assay: 3H-AVP competition binding on V2R membranes; conditions: affinity for the V2R, equilibrium binding, 3H-AVP (FIG. 2)
# Sequence of vasopressin V2 receptor subtype (V2R) (P30518 whole entry): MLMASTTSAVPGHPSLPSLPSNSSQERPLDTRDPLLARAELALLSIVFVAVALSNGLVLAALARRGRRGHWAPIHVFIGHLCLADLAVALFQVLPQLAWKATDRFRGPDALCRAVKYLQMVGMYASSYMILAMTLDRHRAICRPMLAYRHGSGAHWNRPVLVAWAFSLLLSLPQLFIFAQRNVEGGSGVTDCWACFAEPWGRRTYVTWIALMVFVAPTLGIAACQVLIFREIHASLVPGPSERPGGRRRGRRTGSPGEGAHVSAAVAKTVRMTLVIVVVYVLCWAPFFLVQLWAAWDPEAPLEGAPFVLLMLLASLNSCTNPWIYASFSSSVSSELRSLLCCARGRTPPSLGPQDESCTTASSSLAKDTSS
# Procedure: Reaction mixtures contained 50 mM Tris-HCl, pH 7.4, 10 mM MgCl2 and 1 g/L BSA in a final volume of 100 μL. Plates were incubated for 3 h at room temperature. Binding reactions were stopped by filtration through a GF/C filter pre-soaked in 0.5% polyethyleneimine on a cell harvester ([sequence], Courtaboeuf, France) and plates were dried. […] A one-site inhibition mass action curve was fitted to inhibition binding data using Kaleidagraph (SYNERGY SOFTWARE, Reading, Pa., USA).
# [6] = i.p. or s.c. injection at 1 μmol/kg, 24 h urine, vs basal state
compound,measurement,setting,value
CC[C@H](C)[C@@H]1NC(=O)[C@H]([C@@H](C)O)NC(=O)[C@H](CO)NC(=O)[C@H](Cc2ccccc2)NC(=O)[C@H](CCCNC(=N)N)NC(=O)[C@H](CC(N)=O)NC(=O)[C@H](C)NC(=O)[C@H](CC(N)=O)NC(=O)CNC(=O)[C@H](CCCCN)NC(=O)[C@@H]2CSSC[C@@H]3NC(=O)[C@@H]4CCCN4C(=O)CNC(=O)[C@@H]4CCCN4C(=O)[C@H](CCCCN)NC(=O)[C@H](C(C)C)NC(=O)[C@@H]4CCCN4C(=O)[C@H](CC(C)C)NC(=O)[C@H](CC(N)=O)NC(=O)[C@@H](NC(=O)[C@H](Cc4ccccc4)NC(=O)[C@H](CO)NC(=O)[C@@H]4CCCN4C(=O)[C@@H](N)CCCNC(=N)N)CSSC[C@@H](C(=O)N[C@H](C(=O)NCC(=O)O)C(C)C)NC(=O)[C@H]([C@@H](C)O)NC(=O)[C@H](CCCNC(=N)N)NC(=O)[C@H](CCCNC(=N)N)NC(=O)[C@H](CSSC[C@H](NC(=O)[C@H](CCCCN)NC(=O)[C@H](CC(N)=O)NC(=O)[C@H]([C@@H](C)O)NC(=O)[C@H](CCCCN)NC(=O)[C@H](CCC(N)=O)NC(=O)[C@H](CO)NC(=O)[C@H](Cc4ccc(O)cc4)NC(=O)[C@H](Cc4ccc(O)cc4)NC(=O)[C@H](Cc4ccccc4)NC(=O)[C@H](C)NC(=O)[C@H](CO)NC(=O)[C@H](Cc4ccccc4)NC(=O)[C@H](Cc4ccccc4)NC(=O)CNC(=O)[C@H](CC(N)=O)NC3=O)C(=O)N[C@@H](Cc3c[nH]cn3)C(=O)N[C@@H](CO)C(=O)N[C@@H](Cc3ccccc3)C(=O)N[C@@H]([C@@H](C)O)C(=O)N[C@@H](Cc3ccc(O)cc3)C(=O)NCC(=O)NCC(=O)N2)NC(=O)[C@H](CCCCN)NC(=O)[C@H](CCC(=O)O)NC1=O [U-Da2a],inhibition of HCN4,[1],did not appear to exhibit significant inhibition
same,kidney weight,[2],reduces kidney weight
same,number of cysts,[2]; histology,significantly reduces the number of cysts
same,dose sufficient to observe the maximal effect,[3]; i.p.,0.1 µmol/kg
same,urine osmolarity,[3]; [6],strong decrease in osmolarity
same,urine volume,[3]; [6],strong increase in urine volume
same,diuretic effect at increasing doses,"[3]; i.p., 1, 0.1 and 0.01 μmol/kg",dose-dependent diuretic effect
same,urine osmolarity at increasing doses,"[3]; i.p., 1, 0.1 and 0.01 μmol/kg",decrease in urine osmolarity
same,toxic effect after long-term daily injections,[4],No toxic effect was detectable
same,Ki,[5],2 to 5 nM
